Our source for the EC50 values is patent US20220396569A1 (Carmot Therapeutics, Inc., priority 2021, published 2022).

For the experiment, the target named is T1, human GLP-1 receptor (Homo sapiens, UniProt P43220).
T1 construct: expressed in transfected cells
As to the kind of experiment: GLP-1R cAMP Assay (HitHunter cAMP accumulation). The experiment is classed as cell-based. The conditions noted are these: cAMP accumulation, CHO cells stably overexpressing human GLP-1 receptor, 30 min treatment; read-out: EC50. Summed up:
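CHO cells stably expressing human GLP-1R, 10,000 cells/well in HBSS with 10 mM HEPES and 625 μM IBMX, were mixed with anti-cAMP antibody reagent. Compound was applied as a 20-point dose response in triplicate for 30 min. After lysis and overnight detection, luminescence was read and dose-response curves analysed.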
In general terms: Cyclic AMP is a second messenger, typically raised through Gs and lowered through Gi signalling.

A word on the EC50: it is the midpoint of the concentration-response curve.

T1 sequence (P43220 24-463): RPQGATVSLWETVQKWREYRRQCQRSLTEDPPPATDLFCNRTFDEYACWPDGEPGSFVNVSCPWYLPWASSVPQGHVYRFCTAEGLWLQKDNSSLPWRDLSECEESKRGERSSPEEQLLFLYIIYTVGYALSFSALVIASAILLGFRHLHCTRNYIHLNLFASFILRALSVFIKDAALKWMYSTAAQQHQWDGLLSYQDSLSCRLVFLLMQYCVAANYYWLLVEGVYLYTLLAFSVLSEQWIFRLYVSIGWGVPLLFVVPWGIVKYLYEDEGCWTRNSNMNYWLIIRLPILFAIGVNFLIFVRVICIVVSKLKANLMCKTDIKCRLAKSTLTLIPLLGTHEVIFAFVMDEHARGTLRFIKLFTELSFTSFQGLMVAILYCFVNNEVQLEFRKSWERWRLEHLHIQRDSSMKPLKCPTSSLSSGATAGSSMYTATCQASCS

In the case of `CC1(c2ccc(Cl)cn2)Oc2cccc(CC3CN(Cc4nc5ccc(C(=O)O)cc5n4C[C@@H]4CCO4)C3)c2O1` (stereo partly drawn) [Compound 172, 2-[(3-{[2-(5-chloropyridin-2-yl)-2-methyl-2H-1,3-benzodioxol-4-yl]methyl}azetidin-1-yl)methyl]-1-{[(2S)-oxetan-2-yl]methyl}-1H-1,3-benzodiazole-6-carboxylic acid], the concentration giving a half-maximal response (EC50) was greater than 0.5 µM.
Regarding `CCn1cncc1Cn1c(CN2CC(=Cc3ccnc(COc4ccc(Cl)cc4C#N)c3)C2)nc2ccc(C(=O)O)cc21` [Compound 226, 2-{[3-({2-[(4-chloro-2-cyanophenoxy)methyl]pyridin-4-yl}methylidene)azetidin-1-yl]methyl}-1-[(1-ethyl-1H-imidazol-5-yl)methyl]-1H-1,3-benzodiazole-6-carboxylic acid], the EC50 is less than 0.05 µM.
With `O=C(O)c1ccc2nc(CN3CCC(c4ccnc(COc5ccc(Cl)cc5Cl)c4)C3)n(C[C@@H]3CCO3)c2c1` (some centres unmarked) [Compound 399], the EC50 was less than 0.05 µM.
On to `N#CCC1(Cn2c(Cc3ccc(Oc4cccc(COc5ccc(C#N)cc5F)n4)cc3F)nc3c(F)cc(C(=O)O)cc32)CC1` [Compound 469, 2-{[4-({6-[(4-cyano-2-fluorophenoxy)methyl]pyridin-2-yl}oxy)-2-fluorophenyl]methyl}-1-{[1-(cyanomethyl)cyclopropyl]methyl}-4-fluoro-1H-1,3-benzodiazole-6-carboxylic acid], for which the EC50 is less than 0.05 µM.
With `N#Cc1ccc(OCc2cc(Oc3cnc(Cc4nc5c(F)cc(C(=O)O)cc5n4C[C@@H]4CCO4)c(F)c3)ccn2)c(F)c1` [Compound 542, (S)-2-((5-((2-((4-Cyano-2-fluorophenoxy)methyl)pyridin-4-yl)oxy)-3-fluoropyridin-2-yl)methyl)-4-fluoro-1-(oxetan-2-ylmethyl)-1H-benzo[d]imidazole-6-carboxylic acid], the EC50 is less than 0.05 µM.
For `O=C(O)c1ccc2nc(CN3CC(=Cc4cccc(COc5ccc(Cl)cc5Cl)c4)C3)n(C[C@@H]3CCO3)c2c1` [Compound 195] the value was less than 0.05 µM.
For `N#Cc1ccc(OCc2nc(C3=CCN(Cc4nc5ccc(C(=O)O)cc5n4C[C@@H]4CCO4)C3)ccc2F)c(F)c1` [Compound 408, 2-[(3-{6-[(4-cyano-2-fluorophenoxy)methyl]-5-fluoropyridin-2-yl}-2,5-dihydro-1H-pyrrol-1-yl)methyl]-1-{[(2S)-oxetan-2-yl]methyl}-1H-1,3-benzodiazole-6-carboxylic acid] the value was less than 0.05 µM.
Next, `O=C(O)c1ccc2nc(CN3CC=C(c4ccc(F)c(COc5ccc(Cl)cc5Cl)c4)C3)n(Cc3cnco3)c2c1` [Compound 387, 2-[(3-{3-[(2,4-dichlorophenoxy)methyl]-4-fluorophenyl}-2,5-dihydro-1H-pyrrol-1-yl)methyl]-1-[(1,3-oxazol-5-yl)methyl]-1H-1,3-benzodiazole-6-carboxylic acid]: less than 0.05 µM.
`O=C(O)c1ccc2nc(CN3CC=C(c4cc(COc5ccc(Cl)cc5F)ccn4)C3)n(Cc3ncco3)c2c1` [Compound 394, 2-[(3-{4-[(4-chloro-2-fluorophenoxy)methyl]pyridin-2-yl}-2,5-dihydro-1H-pyrrol-1-yl)methyl]-1-[(1,3-oxazol-2-yl)methyl]-1H-1,3-benzodiazole-6-carboxylic acid]: the EC50 fell in the range of 0.05 to 0.5 µM.
Next, `Cc1cc(Oc2ccnc(COc3ccc(C#N)cc3F)n2)ccc1Cc1nc2ccc(C(=O)O)cc2n1C[C@@H]1CCO1` [Compound 541, 2-{[4-({2-[(4-cyano-2-fluorophenoxy)methyl]pyrimidin-4-yl}oxy)-2-methylphenyl]methyl}-1-{[(2S)-oxetan-2-yl]methyl}-1H-1,3-benzodiazole-6-carboxylic acid]: less than 0.05 µM; `N#Cc1ccc(OCc2nccc(O[C@H]3C[C@@H](Cc4nc5ccc(C(=O)O)cc5n4C[C@@H]4CCO4)C3)n2)c(F)c1` [Compound 551]: less than 0.05 µM.
Take `CCn1cncc1Cn1c(CN2CC(Cc3ccnc(COc4ccc(Cl)cc4Cl)c3)C2)nc2ccc(C(=O)O)cc21` [Compound 176, 2-{[3-({2-[(2,4-dichlorophenoxy)methyl]pyridin-4-yl}methyl)azetidin-1-yl]methyl}-1-[(1-ethyl-1H-imidazol-5-yl)methyl]-1H-1,3-benzodiazole-6-carboxylic acid]: the half-maximal effective concentration (EC50) is less than 0.05 µM.
For `CCn1cncc1Cn1c(CN2CCC(Cc3cccc4c3O[C@](C)(c3ccc(Cl)cc3F)O4)CC2)nc2ccc(C(=O)O)cc21` (single isomer, unassigned) [Compound 222], the EC50 is less than 0.05 µM.
In the case of `CCn1cncc1Cn1c(CN2CC(Oc3cccc(COc4ccc(Cl)cc4Cl)c3)C2)nc2ccc(C(=O)O)cc21` [Compound 210, 2-[(3-{3-[(2,4-dichlorophenoxy)methyl]phenoxy}azetidin-1-yl)methyl]-1-[(1-ethyl-1H-imidazol-5-yl)methyl]-1H-1,3-benzodiazole-6-carboxylic acid], the EC50 is less than 0.05 µM.
For the compound `CCn1cncc1Cn1c(Cc2ccc(Oc3cccc(COc4ccc(C#N)cc4F)n3)cc2F)nc2ccc(C(=O)O)cc21` [Compound 461, 2-{[4-({6-[(4-cyano-2-fluorophenoxy)methyl]pyridin-2-yl}oxy)-2-fluorophenyl]methyl}-1-[(1-ethyl-1H-imidazol-5-yl)methyl]-1H-1,3-benzodiazole-6-carboxylic acid], the EC50 is less than 0.05 µM.
As for `N#CCC1(Cn2c(CN3CC=C(c4ccc(F)c(COc5ccc(Cl)cc5F)n4)C3)nc3ccc(C(=O)O)cc32)CC1` [Compound 429, 2-[(3-{6-[(4-chloro-2-fluorophenoxy)methyl]-5-fluoropyridin-2-yl}-2,5-dihydro-1H-pyrrol-1-yl)methyl]-1-{[1-(cyanomethyl)cyclopropyl]methyl}-1H-1,3-benzodiazole-6-carboxylic acid], the EC50 was less than 0.05 µM.
For `O=C(O)c1ccc2nc(Cc3ccc(Oc4cccc(COc5ccc(Cl)cc5F)n4)cc3F)n(C[C@@H]3CCO3)c2c1` [Compound 464, 2-{[4-({6-[(4-chloro-2-fluorophenoxy)methyl]pyridin-2-yl}oxy)-2-fluorophenyl]methyl}-1-{[(2S)-oxetan-2-yl]methyl}-1H-1,3-benzodiazole-6-carboxylic acid] the value was less than 0.05 µM.
Regarding `O=C(O)c1ccc2nc(CN3CCC(c4cccc(COc5ccc(Cl)cc5Cl)c4)C3)n(C[C@@H]3CCO3)c2c1` (stereo partly drawn) [Example 383, 2-((3-(3-((2,4-Dichlorophenoxy)methyl)phenyl)pyrrolidin-1-yl)methyl)-1-(((S)-oxetan-2-yl)methyl)-1H-benzo[d]imidazole-6-carboxylic acid], the EC50 is less than 0.05 µM.
In the case of `O=C(O)c1cc(F)c2nc(CN3CC[C@@H](c4ccc(F)c(COc5ccc(Cl)cc5F)n4)C3)n(C[C@@H]3CCO3)c2c1` [Compound 453, 2-{[(3R)-3-{6-[(4-chloro-2-fluorophenoxy)methyl]-5-fluoropyridin-2-yl}pyrrolidin-1-yl]methyl}-4-fluoro-1-{[(2S)-oxetan-2-yl]methyl}-1H-1,3-benzodiazole-6-carboxylic acid], the EC50 is less than 0.05 µM.
For `O=C(O)c1ccc2nc(CN3CCC(c4cc(COc5ccc(Cl)cc5F)ccn4)C3)n(C[C@@H]3CCO3)c2c1` (stereo partly drawn) [Example 397, 2-((3-(4-((4-Chloro-2-fluorophenoxy)methyl)pyridin-2-yl)pyrrolidin-1-yl)methyl)-1-(((S)-oxetan-2-yl)methyl)-1H-benzo[d]imidazole-6-carboxylic acid], the EC50 is less than 0.05 µM.
